{
  "source": "patent US20260077055A1",
  "about": "“COMPOSITIONS OF POLYPLEXES AND SAPONINS” (SAPREME TECHNOLOGIES B.V., priority 2022, published 2026)",
  "tested_on": "A2058 cancer cells",
  "experiment": "pEGFP-N3 polyplex transfection of A2058 cells, light microscopy",
  "type": "cell-based",
  "settings": "72 h; SO1861-EMCH or SO1861 = 40 nM supplemented to PAMAM G5-(PEG N3)3.5 polyplexes",
  "method": "Spectrophotometry: Concentrations were determined using either a Thermo Nanodrop 2000 spectrometer or Perkin Elmer Lambda 365 Spectrophotometer. DLS measurements: DLS measurements were performed on a Malvern Nano ZS (Malvern Instruments, U.K.), operating at 633 nm with a 173° scattering angle, at 25 or 37° C. DLS mean diameters were obtained from the intensity particle size distribution provided by Malvern Zetasizer Software. DLS histograms were obtained from the intensity particle size distributions. Zeta-potential: The zeta-potential values of the polyplexes were obtained by laser doppler anemometry (LDA), measuring the mean electrophoretic mobility (Malvern Zetasizer Nano ZS, Malvern Instruments, U.K.). Measurements were performed in 10 mM HEPES pH 7.1, 150 mM NaCl. TEM measurements: TEM measurements were performed on a JEOL JEM-1011 operated at 100 kV electron microscope, equipped with a camera S5 MegaView G2. […] Infrared Spectroscopy: FT-IR spectra were recorded on a Bruker Vertex 70v, equipped with a RockSolid interferometer, after preparing the samples (1-2 mg) as KBr pellets. […] NMR Spectroscopy: 1H NMR spectra were recorded on a 11.7 T Bruker DRX-500 spectrometer. […] Experiments were recorded acquiring 64-512 scans, with a pre-scan delay (d1) of 12 s, and an acquisition time (aq) of 4 s at 300 K. 13C NMR spectrum was recorder on a 9.39 T Varian Innova 400 spectrometer. […]",
  "data": [
    {"smiles": "CC(=O)OC1C(C)OC(OC2C(C)OC(OC(=O)[C@]34CCC(C)(C)CC3C3=CCC5[C@@]6(C)CC[C@H](OC7OC(C(=O)O)C(O)C(OC8OCC(O)C(O)C8O)C7OC7OC(CO)C(O)C(O)C7O)[C@@](C)(/C=N/NC(=O)CCCCCN7C(=O)C=CC7=O)C6CC[C@@]5(C)[C@]3(C)C[C@H]4O)C(OC3OC(C)C(OC4OCC(O)C(OC5OC(CO)C(O)C(O)C5O)C4O)C(O)C3O)C2O)C(O)C1OC1OCC(O)C(O)C1O", "note": "(stereo partly shown) [SO1861-EMCH]", "values": [
      {"measurement": "pEGFP-N3 transfection (eGFP expression)", "value": "marginal transfection"}
    ]}
  ]
}
